Values of other authors, collected in patent US20040247689A1, “Process for preparing a pharmaceutical active ingredient with high specific surface area” (priority 2003, published 2004).

solubility in chloroform (chloroform): slightly soluble
solubility in ethanol (ethanol): slightly soluble
solubility in isopropanol (isopropanol): slightly soluble
solubility in methanol (methanol): freely soluble
solubility in water (water): sparingly soluble
Structure (SMILES): OCc1cc(C(O)CNCCCCCCOCCCCc2ccccc2)ccc1O (centres unmarked) [salmeterol xinafoate]
